According to BindingDB's records for patent US10150764 (Epizyme, 2018):

Legend:
[1] = target: Histone-lysine N-methyltransferase EZH2 [Y641F] (Homo sapiens, UniProt Q15910, Y641F); test: Wild-Type PRC2 Enzyme Assay
Procedure: (§1) The assays were performed in a buffer consisting of 20 mM bicine (pH=7.6), 0.5 mM DTT, 0.005% BSG, 100 mM KCl and 0.002% Tween20, prepared on the day of use. […] DMSO (1 μL) was added to columns 11, 12, 23, 24, rows A-H for the maximum signal control, and SAH, a known product and inhibitor of PRC2 (1 μL) was added to columns 11, 12, 23, 24, rows I-P for the minimum signal control. A cocktail (40 μL) containing the wild-type PRC2 enzyme and chicken erythrocyte oligonucleosome was added by Multidrop Combi (Thermo). The compounds were allowed to incubate with PRC2 for 30 min at 25° C., then a cocktail (10 μL) containing a mixture of non-radioactive and 3H-SAM was added to initiate the reaction (final volume=51 μL). […] The assay was stopped by the addition of non-radioactive SAM (10 μL) to a final concentration of 600 μM, which dilutes the 3H-SAM to a level where its incorporation into the chicken erythrocyte olignonucleosome substrate is no longer detectable. […] The plates were then read in a PerkinElmer TopCount platereader to measure the quantity of 3H-labeled chicken erythrocyte oligonucleosome bound to the Flashplate surface, measured as disintegrations per minute (dpm) or alternatively, referred to as counts per minute (cpm).

[2] = target: Histone-lysine N-methyltransferase EZH2 (Homo sapiens, UniProt Q15910); test: Wild-Type PRC2 Enzyme Assay
Chain of Histone-lysine N-methyltransferase EZH2 (Q15910 whole entry): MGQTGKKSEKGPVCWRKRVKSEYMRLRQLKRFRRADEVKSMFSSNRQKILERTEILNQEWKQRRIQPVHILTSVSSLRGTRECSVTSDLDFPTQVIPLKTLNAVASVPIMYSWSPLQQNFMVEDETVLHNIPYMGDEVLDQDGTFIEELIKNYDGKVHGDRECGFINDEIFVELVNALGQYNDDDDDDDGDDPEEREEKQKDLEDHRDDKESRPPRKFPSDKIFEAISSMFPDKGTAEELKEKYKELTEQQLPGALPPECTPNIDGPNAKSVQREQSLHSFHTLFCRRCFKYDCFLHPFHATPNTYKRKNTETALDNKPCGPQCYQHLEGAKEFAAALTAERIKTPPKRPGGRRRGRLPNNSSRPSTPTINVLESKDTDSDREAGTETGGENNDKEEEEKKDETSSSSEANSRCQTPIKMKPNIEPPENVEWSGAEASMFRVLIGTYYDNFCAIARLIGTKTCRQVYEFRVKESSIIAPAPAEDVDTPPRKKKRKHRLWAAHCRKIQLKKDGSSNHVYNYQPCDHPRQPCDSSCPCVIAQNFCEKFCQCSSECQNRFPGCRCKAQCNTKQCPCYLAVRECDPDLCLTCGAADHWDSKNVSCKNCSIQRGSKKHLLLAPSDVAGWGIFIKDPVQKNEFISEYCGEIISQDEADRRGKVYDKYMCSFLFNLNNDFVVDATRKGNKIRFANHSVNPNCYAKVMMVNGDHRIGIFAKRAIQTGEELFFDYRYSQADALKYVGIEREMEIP
Procedure: as §1

Chain of Histone-lysine N-methyltransferase EZH2 [Y641F] (Q15910 whole entry Y641F): as the sequence (Q15910 whole entry) above, with Y641F counted along it

IC50 [1]: 8.35 µM
IC50 [2]: 15.1 µM
SMILES: CCN(c1cc(Cl)cc(C(=O)NCc2c(C)cc3cc[nH]n3c2=O)c1C)[C@H]1CC[C@H](N(C)C)CC1 [US10150764, Compound 2]
